Values after ≈ are worked out from the molar mass of the structure shown. Where two headings read alike, the source gives them in different places.
What was measured:
[1] = system: methicillin-susceptible Staphylococcus aureus (MSSA); test: Antibacterial assay (Test C), broth microdilution MIC against MSSA; type: cell-based; settings: for MIC: Staphylococcus aureus, MSSA, read-out: MSSA MIC data
Procedure: (§1) Test C. Antibacterial Assay.
(§2) Antibacterial activity can be determined as per Clinical and Laboratory Standards Institute (CLSI) guidelines using a broth microdilution assay in which log-phase bacteria are grown at 37° C. in appropriate medium containing two-fold serial dilutions of a compound to yield final concentrations ranging from 256 to 0.06 μg/mL. For determination of minimal inhibitory concentration (MIC) values, bacterial growth is monitored after 24 to 48 hours by measuring optical density at 600 nm.
(§3) Using a procedure similar to Test C, representative compounds of the invention were tested against methicillin-susceptible Staphylococcus aureus (MSSA) and methicillin-resistant Staphylococcus aureus (MRSA).

[2] = system: methicillin-resistant Staphylococcus aureus (MRSA); test: Antibacterial assay (Test C), broth microdilution MIC against MRSA; type: cell-based; settings: for MIC: Staphylococcus aureus, MRSA, read-out: MRSA MIC data
Procedure: as §1, §2, §3

[3] = minimal inhibitory concentration, broth microdilution, growth completely inhibited
[4] = minimal inhibitory concentration, broth microdilution, growth completely inhibited, listed as 46
[5] = minimal inhibitory concentration, broth microdilution, growth completely inhibited, listed as 19
[6] = minimal inhibitory concentration, broth microdilution, growth completely inhibited, listed as 43
[7] = minimal inhibitory concentration, broth microdilution, growth completely inhibited, listed as 18
[8] = minimal inhibitory concentration, broth microdilution, growth completely inhibited, listed as 51

Compound | MIC [1, 3] | MIC [2, 3] | other results
C[N+](C)(C)c1cccc(-c2cccc(-c3cccc(-c4ccccc4)c3)c2)c1 [Code 36] | 1 µg/mL | 4 µg/mL | –
CC(C)(C)c1ccc(-c2ccc3sc(CNC(=N)N)nc3c2)cc1 [Code 6] | 4 µg/mL (≈ 11.8 µM) | 8 µg/mL (≈ 23.6 µM) | –
CC(C)(C)c1ccc(-c2ncc(CNC(=N)N)s2)cc1 [Code 11] | 8 µg/mL (≈ 27.7 µM) | 32 µg/mL (≈ 111 µM) | –
COc1cc(CN2CCN(C)CC2)cc(-c2ccc(C(C)(C)C)cc2)c1OC [Code 42] | 2 µg/mL (≈ 5.23 µM) | 4 µg/mL (≈ 10.5 µM) | –
CCC(C)NCc1cccc(-c2ccc(C(C)(C)C)cc2)c1 (stereo not shown) [Code 54] | – | – | MSSA MIC data [1, 4]: 16 µg/mL; MRSA MIC data [2, 4]: 32 µg/mL
CC(C)(C)c1ccc(-c2cccc(CNNC(=N)N)c2)cc1 [Code 31] | 2 µg/mL (≈ 6.75 µM) | 4 µg/mL (≈ 13.5 µM) | –
CC(C)(C)c1cccc(-c2cccc(CNC(=N)N)c2)c1 [Code 24] | 2 µg/mL (≈ 7.11 µM) | 8 µg/mL (≈ 28.4 µM) | –
CC(C)(C)c1csc(-c2cccc(CN=C(N)N)c2)n1 [Code 26] | 4 µg/mL (≈ 13.9 µM) | 16 µg/mL (≈ 55.5 µM) | –
CC(C)(C)c1ccc(-c2ccnc(CN=C(N)N)c2)cc1 [Code 5] | 8 µg/mL (≈ 28.3 µM) | 16 µg/mL (≈ 56.7 µM) | –
COCCOCCOCCOCCOc1cc(CNC(=N)N)cc(-c2ccc(C(C)(C)C)cc2)c1 [Code 17] | 2 µg/mL (≈ 4.1 µM) | 4 µg/mL (≈ 8.2 µM) | –
CC(C)(C)c1ccc(-c2csc(CNC(=N)N)n2)cc1 [Code 10] | 4 µg/mL (≈ 13.9 µM) | 32 µg/mL (≈ 111 µM) | –
CC(C)(C)c1csc(-c2ccc(CN=C(N)N)cc2)n1 [Code 28] | – | – | MRSA MIC data ([2]; minimal inhibitory concentration, broth microdilution, growth completely inhibited, listed as 25): 8 µg/mL
COc1cc(-c2ccc(C(C)(C)C)cc2)cc(CNC(=N)N)c1OC [Code 14] | 2 µg/mL (≈ 5.86 µM) | 8 µg/mL (≈ 23.4 µM) | –
CC(C)(C)c1ccc(-c2ccc(CCN)cc2)cc1 [Code 19] | 4 µg/mL (≈ 15.8 µM) | – | MRSA MIC data ([2]; minimal inhibitory concentration, broth microdilution, growth completely inhibited, listed as 17): 4.0 µg/mL
CC(C)(C)c1cccc(-c2ccccc2CCN)c1 [Code 38] | 32 µg/mL (≈ 126 µM) | – | –
N=C(N)N/N=C/c1cccc(-c2ccc(Br)cc2)c1 [Code 30] | – | – | MSSA MIC data ([1]; minimal inhibitory concentration, broth microdilution, growth completely inhibited, listed as 27): 32 µg/mL
Cc1cc(C)cc(-c2cccc(CCN)c2)c1 [Code 45] | 64 µg/mL (≈ 284 µM) | – | –
CN(C)Cc1ccc(-c2ccc(C(C)(C)C)cc2)cc1 [Code 22] | 16 µg/mL (≈ 59.8 µM) | 32 µg/mL (≈ 120 µM) | –
CC(C)(C)c1ccc(-c2ccc(CCN)cc2)cc1 [Code 21] | – | – | MSSA MIC data [1, 5]: 8.0 µg/mL; MRSA MIC data [2, 5]: 16 µg/mL

Compound | MIC [1, 3] | MIC [2, 3] | other results
CC(C)(C)c1ccc(-c2cccc(CNC(=N)N)c2)cc1 [Code 3] | – | – | MSSA MIC data ([1]; minimal inhibitory concentration, broth microdilution, growth completely inhibited, listed as 2): >64.0 µg/mL
CC(C)(C)c1ccc(-c2cccc(C(=O)NC(=N)N)c2)cc1 [Code 29] | 4 µg/mL (≈ 13.5 µM) | 8 µg/mL (≈ 27.1 µM) | –
CC(C)(C)c1ccc(-c2cc(Cn3ccnc3)cc(NS(C)(=O)=O)c2)cc1 [Code 51] | – | – | MSSA MIC data [1, 6]: 1.0 µg/mL; MRSA MIC data [2, 6]: 2.0 µg/mL
CC(C)(C)c1ccc(-c2ccccc2CCN)cc1 [Code 37] | 32 µg/mL (≈ 126 µM) | – | –
N=C(N)N/N=C/c1cccc(-c2ccc(Br)cc2)c1 [Code 35] | – | 4 µg/mL (≈ 12.6 µM) | MSSA MIC data ([1]; minimal inhibitory concentration, broth microdilution, growth completely inhibited, listed as 30): 4.0 µg/mL
C[N+](C)(C)c1ccc(-c2ccc(-c3ccccc3)cc2)cc1.[I-] [Code 1] | 8 µg/mL | 64 µg/mL | –
CC(C)(C)c1ccc(-c2ccc(CNC(=N)N)cc2)cc1 [Code 20] | – | – | MSSA MIC data [1, 7]: 2.0 µg/mL; MRSA MIC data [2, 7]: 4.0 µg/mL
CC(C)(C)c1ccc(-c2ccc(CNC(=N)N)cc2)cc1 [Code 18] | 4 µg/mL (≈ 14.2 µM) | – | MRSA MIC data ([2]; minimal inhibitory concentration, broth microdilution, growth completely inhibited, listed as 16): 16 µg/mL
CN(C)Cc1ccc(-c2ccc(C(C)(C)C)cc2)cc1CN=C(N)N [Code 23] | 4 µg/mL (≈ 11.8 µM) | 8 µg/mL (≈ 23.6 µM) | –
CC(C)(C)c1ccc(-c2cccc(CNC(=N)N)c2)cc1 [Code 4] | – | 1 µg/mL (≈ 3.55 µM) | MSSA MIC data ([1]; minimal inhibitory concentration, broth microdilution, growth completely inhibited, listed as 3): 1.0 µg/mL
NC(N)=NCc1cccc(-c2ccc(Br)cc2)c1 [Code 41] | – | – | MIC [1]: 4 µg/mL (≈ 13.1 µM); MIC [2]: 8 µg/mL (≈ 26.3 µM)
CC(C)(C)c1ccc(-c2cc(Cn3ccnc3)cc(NS(C)(=O)=O)c2)cc1 [Code 60] | – | – | MSSA MIC data [1, 8]: 16.0 µg/mL; MRSA MIC data [2, 8]: >64 µg/mL
CC(NC(=N)N)c1cccc(-c2ccc(C(C)(C)C)cc2)c1 (stereo not shown) [Code 13] | 1 µg/mL (≈ 3.38 µM) | 2 µg/mL (≈ 6.77 µM) | –
CC(C)(C)OC(=O)NC(=N)NCc1nc(-c2ccc(C(C)(C)C)cc2)cs1 [Code 9] | 8 µg/mL (≈ 20.6 µM) | – | –
CC(C)(C)c1ccc(-c2cccc(OCCn3ccnc3)c2)cc1 [Code 15] | 4 µg/mL (≈ 12.5 µM) | 4 µg/mL (≈ 12.5 µM) | –
COc1cc(-c2ccc(C(C)(C)C)cc2)cc(Cn2ccnc2)c1OC [Code 16] | 2 µg/mL (≈ 5.71 µM) | 2 µg/mL (≈ 5.71 µM) | –
CC(C)(C)c1ccc(-c2cccc(/C=N/NC(=N)N)c2)cc1 [Code 12] | 2 µg/mL (≈ 6.79 µM) | 8 µg/mL (≈ 27.2 µM) | –
CC(C)(C)c1csc(-c2ccc(CN=C(N)N)cc2)n1 [Code 25] | 4 µg/mL (≈ 13.9 µM) | 8 µg/mL (≈ 27.7 µM) | –

Further lines, with some results ahead:

MIC [1, 3] | MIC [2, 3] | Compound | other results
2 µg/mL (≈ 5.49 µM) | 8 µg/mL (≈ 21.9 µM) | CC(C)(C)c1ccc(-c2cc(CNC(=N)N)cc(-c3cscn3)c2)cc1 [Code 63] | –
16 µg/mL (≈ 45.4 µM) | 16 µg/mL (≈ 45.4 µM) | CC(C)(C)c1ccc(-c2cc(CNC(=N)N)cc(CNC(=N)N)c2)cc1 [Code 59] | –
16 µg/mL (≈ 46 µM) | > 64 µg/mL | CC(=O)Nc1cc(Cn2ccnc2)cc(-c2ccc(C(C)(C)C)cc2)c1 [Code 63] | –
1 µg/mL (≈ 2.87 µM) | 2 µg/mL (≈ 5.74 µM) | COC(=O)c1ccc(-c2ccc(C(C)(C)C)cc2)cc1Cn1ccnc1 [Code 52, methyl 3-((1H-imidazol-1-yl)methyl)-4′-(tert-butyl)-[1,1′-biphenyl]-4-carboxylate] | –
> 64 µg/mL | – | CCC(C)N(Cc1cccc(-c2ccc(C(C)(C)C)cc2)c1)C(=N)N (stereo not shown) [Code 57] | –
4 µg/mL (≈ 9.67 µM) | 32 µg/mL (≈ 77.4 µM) | CC(C)(C)c1ccc(-c2cc(CNC(=N)N)cc(-c3ccc(C(C)(C)C)cc3)c2)cc1 [Code 44] | –
4 µg/mL (≈ 11.1 µM) | 32 µg/mL (≈ 88.8 µM) | O=C(Nc1nccs1)c1ccc(-c2cccc(Cn3ccnc3)c2)cc1 [Code 62] | –
1 µg/mL (≈ 2.12 µM) | 2 µg/mL (≈ 4.24 µM) | COc1cc(OC(F)(F)F)ccc1-c1cc(CN=C(N)N)cc(-c2ccc(C(C)(C)C)cc2)c1 [Code 53] | –
1 µg/mL (≈ 2.8 µM) | 2 µg/mL (≈ 5.59 µM) | CC(C)(C)c1ccc(-c2ccc(-c3cccc(CNC(=N)N)c3)cc2)cc1 [Code 43] | –
8 µg/mL (≈ 27.5 µM) | 16 µg/mL (≈ 55.1 µM) | CC(C)(C)c1ccc(-c2cccc(Cn3ccnc3)c2)cc1 [Code 47] | –
2 µg/mL (≈ 4.2 µM) | 8 µg/mL (≈ 16.8 µM) | CC(C)(C)c1ccc(-c2cc(CC(Br)Br)cc(Cn3ccnc3)c2)cc1 [Code 61] | MSSA MIC data [1, 3]: 4.0 µg/mL
16 µg/mL (≈ 66.8 µM) | 16 µg/mL (≈ 66.8 µM) | CC(C)(C)c1ccc(-c2cccc(CN)c2)cc1 [Code 57] | –
32 µg/mL (≈ 76.8 µM) | – | CC(C)(C)c1ccc(-c2ccc(C(=O)Nc3nccs3)c(Cn3ccnc3)c2)cc1 [Code 67] | –
– | 16 µg/mL (≈ 54.2 µM) | CCC(C)NCc1cccc(-c2ccc(C(C)(C)C)cc2)c1 (stereo not shown) [Code 46] | MSSA MIC data ([1]; minimal inhibitory concentration, broth microdilution, growth completely inhibited, listed as 40): 4.0 µg/mL
16 µg/mL (≈ 54.9 µM) | 16 µg/mL (≈ 54.9 µM) | CC(C)(C)c1ccc(-c2cccc(Cn3cncn3)c2)cc1 [Code 66] | MRSA MIC data [2, 3]: 32 µg/mL
– | 32 µg/mL (≈ 104 µM) | NC(N)=NCc1cccc(-c2ccc(-c3cncs3)cc2)c1 [Code 64] | MSSA MIC data [1, 3]: 4.0 µg/mL; MSSA MIC data ([1]; minimal inhibitory concentration, broth microdilution, growth completely inhibited, listed as 54): 16 µg/mL
2 µg/mL (≈ 6.24 µM) | 8 µg/mL (≈ 25 µM) | CC(C)(C)c1ccc(-c2ccc(CO)c(Cn3ccnc3)c2)cc1 [Code 56] | –
32 µg/mL (≈ 68.5 µM) | – | CC(C)(C)c1ccc(-c2cc(CNC(=N)N)cc(CC(Br)Br)c2)cc1 [Code 58] | –
> 64 µg/mL | – | CC(C)(C)c1ccc(-c2cc(N)cc(Cn3ccnc3)c2)cc1 [Code 59] | –
8 µg/mL (≈ 23.9 µM) | 8 µg/mL (≈ 23.9 µM) | CC(C)(C)c1ccc(-c2cc(Cn3ccnc3)cc([N+](=O)[O-])c2)cc1 [Code 58] | –

From patent US20150011559A1, “ANTIMICROBIAL AGENTS” (RUTGERS, THE STATE UNIVERSITY OF NEW JERSEY, priority 2012, published 2015)
